# Reference: patent publication US9636324B2, “Use of 15-benzylidence-14-deoxy-11, 12 -dehyroandrographolide derivative in manufacture of medicaments for protecting liver and anti-hepatitis C virus” (Zhengzhou University, priority 2012, dated 2017)
# What was measured:
# [1] = tested on: mice with carbon tetrachloride induced liver damage; test: Carbon tetrachloride induced chemical liver damage model in mice; format: in vivo, Kunming mice; conditions: for protective effect against liver damage induced by carbon tetrachloride (summary): mice, intragastric, 3 days
# Experimental: Kunming mice of clean grade (male, weight 20±2 g), after adaptively fed for 3 days, are randomly divided into normal group, model group, bifendate positive control group (200 mg/kg), AD group (0.88 mmol/kg), low dosage group (0.66 mmol/kg) and high dosage group (0.88 mmol/kg) of compound A, B, C and D, with 8 mice in each group. Positive group and each test group are intragastrically given with respective suspension prepared with 0.5% CMC-Na, and normal group and model group are given with 0.5% CMC-Na. The drugs are given for 3 days, and 1 h after the last administration, all mice except those in the normal group are intraperitoneally injected with a single dose of 0.3% carbon tetrachloride in peanut oil (0.1 mL/10 g). After 16 h, the eyeball of the mice in each group is enucleated to collect blood, which is centrifuged at 3000 rpm for 15 min to separate serum. ALT and AST activities are tested respectively (Nanjing Jiancheng Bioengineering Institute). The left lobe of liver is taken to prepare 10% homogenate using physiological saline, MDA (Nanjing Jiancheng Bioengineering Institute) and PGE2 contents are determined. Experimental data are expressed as average±standard deviation (X±s), analyzed with SPSS 11.5 statistic software, with P<0.05 meaning there is a significant difference. Other agents, drugs and experimental methods are the same as in EXAMPLE 1. In experimental investigation of both models, the following grouping method is used: Kunming mice of clean grade (male, weight 20±2 g) are randomly divided into normal group, model group, bifendate group (200 mg/kg), AD group (0.88 mmol/kg), low dosage group (0.66 mmol/kg) and high dosage group (0.88 mmol/kg) of compound E, with 8 mice in each group. Other agents, drugs and experimental methods are the same as in EXAMPLE 1 and in EXAMPLE 4, respectively.
# MDBK (NBL-1) cells = test: MTT assay for cytotoxicity; format: cell-based, bovine
# Experimental: The drug-containing medium is added and further incubated for 48 h. MTT is added (5 mg/mL) at 20 μL/well and cultured for 4 h, the supernatant is discarded and 150 μL DMSO is added, then the plate is shaken for 10 minutes and the absorbance is determined using a microplate reader using the wavelength 570 nm and a reference wavelength 450 nm. The cell survival rate is calculated after treatment of compounds: cell survival rate (%)=drug group A value/cell control group A value×100%, and the results are shown in FIG. 10. Cell proliferation inhibition rate (%)=100%−survival rate (%), half maximal (50%) toxic concentration (TC50) is calculated according to Reed-Muench method.
# [2] = tested on: bovine viral diarrhea virus (BVDV-AV69); test: CPE observation of effects on cytopathy caused by BVDV in MDBK cells; conditions: for antiviral effect compared with AD / pharmaceutical effect against cytopathy caused by virus compared with ribavirin: BVDV in MDBK cells; for TI value (therapy index, TC50/IC50): MDBK cells, BVDV-AV69, TC50 from MTT, IC50 from CPE
# Experimental: Pharmaceutical effects of drugs of the invention against cytopathy caused by inoculation of BVDV virus are investigated using MDBK (NBL-1) cells (purchased from Chinese Academy of Science's Shanghai Center for Type Culture Collection) and bovine viral diarrhea virus (BVDV-AV69) (purchased from China Institute of Veterinary Drugs Control). Ribavirin (R; Henan RunHong Pharmaceutical Co., Ltd; batch number: E0909604) is used as positive drug control. MDBK cells are prepared as a suspension (1×10^5/mL) in RPMI1640 culture medium which contains 10% in volume fetal bovine serum (Zhejiang Tianhang Biotechnology Co., Ltd; batch number: 100524), 100 μg/mL streptomycin (Shenzheng Huayao Nanfang Pharmaceutical Co., Ltd; batch number: N09081), 100 U/mL penicillin (North China Pharmaceutical Co., Ltd; batch number: E0909604), and are seeded in 96 well plates (Costar, US) at 200 μL/well, placed in an incubator (Binder, Germany) at 37° C. with 5% CO2 to culture the cell. In 24 h when cells grow into a single layer, virus solution of 100 TCID50 (TCID50=10^−2.5) is added and incubated for 1.5 h. Maintenance medium with the drug is added at 200 μL/well after 3×PBS washes.
# After digestion of MDBK cells with trypsin, cells with a concentration of 1×10^5/mL are seeded into 96 well plates at 200 μL/well, placed in an incubator at 37° C. with 5% CO2 for 24 h. After growing into a single layer, cells are attacked using 100 TCID50 (TCID50=10^−2.5) virus and incubated for 1.5 h. The virus-containing maintenance medium is discarded, and cells are washed with PBS, followed by addition of drug-containing maintenance medium with different concentrations, and incubation in 5% CO2 at 37° C. Normal cell control, virus control, drug treatment and ribavirin treatment groups are set. The cytopathy developing status is recorded everyday by observing under an inverted microscope.
# [3] = tested on: mice with ConA induced liver damage; test: ConA induced immunological liver damage model in mice; format: in vivo, Kunming mice; conditions: for protective effect against liver damage induced by ConA (summary): mice, intragastric, 3 days
# Experimental: Kunming mice of clean grade (male, weight 20±2 g, supplied by the Laboratory Animal Center, Henan Province) are randomly divided into groups with 6 mice in each group. Bifendate (Xinchang Pharmaceutical Factory of Zhejiang Pharmaceutical Co., Ltd, 200 mg/kg) is used as positive control, andrographolide (AD) is provided by Furen Pharmaceutical Group Co., Ltd, and the test compounds are synthesized by the inventors with purities higher than 99.0%. Normal control group and model group are intragastrically given 0.5% sodium carboxymethylcellulose (CMC-Na), and test groups are given 0.5% CMC-Na suspensions with AD (0.88 mmol/kg), and low dosage (0.66 mmol/kg) and high dosage (0.88 mmol/kg) of compound A, B and C, respectively. The drugs are given for 3 days. One hour after the last administration, all mice except those in the normal control group are injected with a single dose of ConA (20 mg/kg) through the caudal vein. After 8 h, the eyeball is enucleated to collect blood, which is centrifuged at 3000 rpm for 15 min to separate serum. ALT and AST are tested according to the kit specification, respectively (Nanjing Jiancheng Bioengineering Institute). The left lobe of liver is taken to prepare 10% homogenate using physiological saline, MDA is determined according to the kit specification (Nanjing Jiancheng Bioengineering Institute). To 50 μL liver homogenate is added 2 mL of 0.5 mol/L KOH-methanol solution and kept at 50° C. water bath to isomerize for 20 minutes, then absorbance (A value) is measured at 278 nm, using the A value per mL of homogenate to represent the PGE2 content. Experimental data are expressed as average±standard deviation (X±s), analyzed with SPSS 11.5 statistic software, with P<0.05 meaning significant difference.
# Kunming mice of clean grade (male, weight 20±2 g) are randomly divided into normal group, model group, bifendate (Zhejiang Wanbang Pharmaceutical Co., Ltd) positive control group (200 mg/kg), AD group (0.88 mmol/kg), low dosage group (0.66 mmol/kg) and high dosage (0.88 mmol/kg) group of compound D. ALT, AST, and MDA assay kits are purchased from Nanjing Jiancheng Bioengineering Institute. Other agents, drugs and experimental methods are the same as in EXAMPLE 1.
# In experimental investigation of both models, the following grouping method is used: Kunming mice of clean grade (male, weight 20±2 g) are randomly divided into normal group, model group, bifendate group (200 mg/kg), AD group (0.88 mmol/kg), low dosage group (0.66 mmol/kg) and high dosage group (0.88 mmol/kg) of compound E, with 8 mice in each group. Other agents, drugs and experimental methods are the same as in EXAMPLE 1 and in EXAMPLE 4, respectively.
# [4] = dosage groups not distinguished (0.66 and 0.88 mmol/kg), P<0.01
# [5] = dosage groups not distinguished, P<0.01
# [6] = high dosage 0.88 mmol/kg vs AD 0.88 mmol/kg, P<0.05
# [7] = high dosage 0.88 mmol/kg, P<0.05
# [8] = low dosage 0.66 mmol/kg vs AD 0.88 mmol/kg, P<0.05
# [9] = high dosage 0.88 mmol/kg, P<0.01
# [10] = low dosage 0.66 mmol/kg, P<0.05 (D), P<0.01 (E)
# [11] = low dosage 0.66 mmol/kg, P<0.01
smiles,measurement,setting,value
"C=C1CCC2C(C)(COC(=O)c3cccnc3)C(OC(=O)c3cccnc3)CCC2(C)C1C=CC1=CC(=Cc2ccc(Cl)cc2)OC1=O (stereo not shown) [Compound D, 15-p-chlorobenzylidene-3,19-nicotinate-14-deoxy-11,12-dehydroandrographolide]",ALT activity in serum vs model group,[1]; [4],notably suppress the increase
same,AST activity in serum vs model group,[1]; [4],notably suppress the increase
same,MDA level in liver homogenate vs model group,[1]; [5],effectively reduce
same,PGE2 level in liver homogenate vs model group,[1]; [5],effectively reduce
same,magnitude of decrease in ALT activity compared to AD group,[1]; [6],significantly better
same,magnitude of decrease in AST activity compared to AD group,[1]; [6],significantly better
same,PGE2 content compared to AD group,[1]; [7],notably lower
same,ability to reduce lipid peroxide level in liver homogenate compared to AD group,[1]; [7],stronger ability to reduce the lipid peroxide level
same,magnitude of decrease in ALT activity compared to AD group,[1]; [8],significantly better
same,magnitude of decrease in AST activity compared to AD group,[1]; [8],significantly better
same,PGE2 content compared to AD group,"[1]; low dosage 0.66 mmol/kg, P<0.05",notably lower
same,protective effect against liver damage induced by carbon tetrachloride (summary),[1],protective effect
same,cytotoxicity to MDBK cells,"MDBK (NBL-1) cells; 0-7.5 μmol/L, 48 h",do not show obvious cytotoxcity
same,antiviral effect compared with AD,[2],better antiviral effect than AD
same,pharmaceutical effect against cytopathy caused by virus compared with ribavirin,[2],better than ribavirin
same,"TI value (therapy index, TC50/IC50)",[2],>127.6
same,PGE2 content in liver homogenate relative to normal group,[3]; high dosage 0.88 mmol/kg,close to that of normal group
same,"enzyme (ALT, AST) lowering effect compared to AD group",[3]; [6],obviously increased abilities to lower the enzymes
same,ALT activity in serum vs model group,[3]; [9],notably decreased
same,AST activity in serum vs model group,[3]; [9],notably decreased
same,MDA content in liver homogenate vs model group,[3]; [9],significantly reduce
same,PGE2 content in liver homogenate vs model group,[3]; [9],significantly reduce
same,ability against liver lipid peroxidation compared with AD group,"[3]; high dosage 0.88 mmol/kg, P<0.01 (B, C), P<0.05 (D)",obviously increased abilities
same,PGE2 content in liver homogenate vs model group,"[3]; low dosage 0.66 mmol/kg, P<0.05 (A), P<0.01 (D)",significantly reduce
same,ALT activity in serum vs model group,[3]; [10],notably decreased
same,AST activity in serum vs model group,[3]; [10],notably decreased
same,MDA content in liver homogenate vs model group,"[3]; low dosage (printed 0.66 mol/kg), P<0.01",significantly reduce
same,protective effect against liver damage induced by ConA (summary),[3],significant protective effect
C=C1CCC2C(C)(COC(=O)CCC(=O)O)C(OC(=O)CCC(=O)O)CCC2(C)C1C=CC1=CC(=Cc2ccc(Cl)cc2)OC1=O (stereo not shown) [Compound E],magnitude of decrease in ALT activity compared to AD group,[1]; [6],notably lower
same,magnitude of decrease in AST activity compared to AD group,[1]; [6],notably lower
same,ALT activity in serum vs model group,[1]; [9],notably decrease
same,AST activity in serum vs model group,[1]; [9],notably decrease
same,ALT activity in serum vs model group,[1]; [11],notably decrease
same,AST activity in serum vs model group,[1]; [11],notably decrease
same,protective effect against liver damage induced by carbon tetrachloride (summary),[1],significant protective effect
same,cytotoxicity to MDBK cells,"MDBK (NBL-1) cells; 0-7.5 μmol/L, 48 h",do not show obvious cytotoxcity
same,cytotoxicity to MDBK cells,MDBK (NBL-1) cells; 30 μmol/L,shows no cytotoxcity
same,antiviral effect compared with AD,[2],better antiviral effect than AD
same,pharmaceutical effect against cytopathy caused by virus compared with ribavirin,[2],better than ribavirin
same,"TI value (therapy index, TC50/IC50)",[2],>250
same,ALT activity in serum compared with AD group,[3]; [6],notably lower than AD group
same,AST activity in serum compared with AD group,[3]; [6],notably lower than AD group
same,ALT activity in serum vs model group,[3]; [9],notably decrease
same,AST activity in serum vs model group,[3]; [9],notably decrease
same,ALT activity in serum compared with AD group,[3]; [8],notably lower than AD group
same,AST activity in serum compared with AD group,[3]; [8],notably lower than AD group
same,ALT activity in serum vs model group,[3]; [10],notably decrease
same,AST activity in serum vs model group,[3]; [10],notably decrease
same,protective effect against liver damage induced by ConA (summary),[3],significant protective effect
